Laboratory results published in PubChem BioAssay (NCI).
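Growth conditions: 96-well plates. Treatment: test compound, 48 hours, 5 concentrations. Analysis: linear interpolation between bracketing concentrations; unreached endpoints set to highest concentration. GI50 = concentration required for 50% inhibition of growth. TGI: concentration producing complete growth inhibition.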

Assays:
Test in all cases: NCI-60 cell line screen, 48 h; in the data active = GI50 below about 0.43 µM; inactive = the rest
LOX IMVI melanoma = system: LOX IMVI melanoma
OVCAR-3 ovarian = system: OVCAR-3 ovarian
PC-3 prostate = system: PC-3 prostate
HT29 colon = system: HT29 colon
SF-295 CNS = system: SF-295 CNS
K-562 leukemia = system: K-562 leukemia
HCT-116 colon = system: HCT-116 colon
UACC-257 melanoma = system: UACC-257 melanoma
U251 CNS = system: U251 CNS
SK-MEL-2 melanoma = system: SK-MEL-2 melanoma
IGROV1 ovarian = system: IGROV1 ovarian
A498 renal = system: A498 renal
DU-145 prostate = system: DU-145 prostate
BT-549 breast = system: BT-549 breast
786-0 renal = system: 786-0 renal
SNB-75 CNS = system: SNB-75 CNS
HOP-92 NSCLC = system: HOP-92 NSCLC
HCT-15 colon = system: HCT-15 colon
SK-MEL-28 melanoma = system: SK-MEL-28 melanoma
KM12 colon = system: KM12 colon
OVCAR-4 ovarian = system: OVCAR-4 ovarian
HCC-2998 colon = system: HCC-2998 colon
SK-MEL-5 melanoma = system: SK-MEL-5 melanoma
SNB-19 CNS = system: SNB-19 CNS
OVCAR-8 ovarian = system: OVCAR-8 ovarian
NCI-H23 lung = system: NCI-H23 lung
MCF7 breast = system: MCF7 breast
MOLT-4 leukemia = system: MOLT-4 leukemia
T-47D breast = system: T-47D breast
CCRF-CEM leukemia = system: CCRF-CEM leukemia
MDA-MB-231 breast = system: MDA-MB-231 breast
HL-60(TB) leukemia = system: HL-60(TB) leukemia
ACHN renal = system: ACHN renal
SR leukemia = system: SR leukemia
UO-31 renal = system: UO-31 renal
NCI-H226 lung = system: NCI-H226 lung
SF-539 CNS = system: SF-539 CNS
SN12C renal = system: SN12C renal
HS 578T breast = system: HS 578T breast
COLO 205 colon = system: COLO 205 colon
RPMI-8226 leukemia = system: RPMI-8226 leukemia
MALME-3M melanoma = system: MALME-3M melanoma
UACC-62 melanoma = system: UACC-62 melanoma
HOP-62 NSCLC = system: HOP-62 NSCLC
CAKI-1 renal = system: CAKI-1 renal
TK-10 renal = system: TK-10 renal
SF-268 CNS = system: SF-268 CNS
A549 NSCLC = system: A549 NSCLC
MDA-MB-435 = system: MDA-MB-435
NCI/ADR-RES ovarian = system: NCI/ADR-RES ovarian
SW-620 colon = system: SW-620 colon
NCI-H460 lung = system: NCI-H460 lung
M14 melanoma = system: M14 melanoma
OVCAR-5 ovarian = system: OVCAR-5 ovarian
NCI-H522 lung = system: NCI-H522 lung
SK-OV-3 ovarian = system: SK-OV-3 ovarian
EKVX NSCLC = system: EKVX NSCLC
RXF 393 renal = system: RXF 393 renal

Clc1cc(Br)ccc1-c1ccc(CNCC2CCNCC2)o1
3.27 µM: TGI (OVCAR-3 ovarian)
inactive: GI50 (LOX IMVI melanoma) 1.86 µM | GI50 (OVCAR-3 ovarian) 1.75 µM | GI50 (PC-3 prostate) 1.64 µM | GI50 (HT29 colon) 1.44 µM | GI50 (SF-295 CNS) 1.94 µM | GI50 (K-562 leukemia) 1.45 µM | GI50 (HCT-116 colon) 1.69 µM | GI50 (UACC-257 melanoma) 1.85 µM | GI50 (U251 CNS) 2.17 µM | GI50 (SK-MEL-2 melanoma) 1.75 µM | GI50 (IGROV1 ovarian) 1.9 µM | GI50 (A498 renal) 1.87 µM | GI50 (DU-145 prostate) 1.75 µM | GI50 (BT-549 breast) 1.73 µM | GI50 (786-0 renal) 1.55 µM | GI50 (SNB-75 CNS) 1.26 µM | GI50 (HOP-92 NSCLC) 1.4 µM | GI50 (HCT-15 colon) 1.86 µM | GI50 (SK-MEL-28 melanoma) 1.89 µM | GI50 (KM12 colon) 1.71 µM | GI50 (OVCAR-4 ovarian) 1.86 µM | GI50 (HCC-2998 colon) 1.86 µM | GI50 (SK-MEL-5 melanoma) 1.76 µM | GI50 (SNB-19 CNS) 2.3 µM | GI50 (OVCAR-8 ovarian) 2.19 µM | GI50 (NCI-H23 lung) 3.43 µM | GI50 (MCF7 breast) 1.74 µM | GI50 (MOLT-4 leukemia) 1.7 µM | GI50 (T-47D breast) 1.98 µM | GI50 (CCRF-CEM leukemia) 1.58 µM | GI50 (MDA-MB-231 breast) 1.59 µM | GI50 (HL-60(TB) leukemia) 1.89 µM | GI50 (ACHN renal) 1.93 µM | GI50 (SR leukemia) 0.444 µM | GI50 (UO-31 renal) 1.66 µM | GI50 (NCI-H226 lung) 2.3 µM | GI50 (SF-539 CNS) 1.65 µM | GI50 (SN12C renal) 2.23 µM | GI50 (HS 578T breast) 1.91 µM | GI50 (COLO 205 colon) 1.89 µM | GI50 (RPMI-8226 leukemia) 1.86 µM | GI50 (MALME-3M melanoma) 2.33 µM | GI50 (UACC-62 melanoma) 1.69 µM | GI50 (HOP-62 NSCLC) 1.84 µM | GI50 (CAKI-1 renal) 1.85 µM | GI50 (TK-10 renal) 1.75 µM | GI50 (SF-268 CNS) 1.57 µM | GI50 (A549 NSCLC) 1.9 µM | GI50 (MDA-MB-435) 1.84 µM | GI50 (NCI/ADR-RES ovarian) 3.13 µM | GI50 (SW-620 colon) 1.85 µM | GI50 (NCI-H460 lung) 1.87 µM | GI50 (M14 melanoma) 1.85 µM | GI50 (OVCAR-5 ovarian) 1.89 µM | GI50 (NCI-H522 lung) 1.82 µM | GI50 (SK-OV-3 ovarian) 1.99 µM
3.24 µM: TGI (UO-31 renal)
3.77 µM: TGI (A549 NSCLC)
9.69 µM: TGI (NCI/ADR-RES ovarian)
3.53 µM: TGI (SK-MEL-2 melanoma)
6.25 µM: TGI (NCI-H226 lung)
3.99 µM: TGI (SF-295 CNS) | TGI (HL-60(TB) leukemia)
3.22 µM: TGI (KM12 colon)
3.57 µM: TGI (MOLT-4 leukemia)
4.49 µM: TGI (OVCAR-4 ovarian)
3.51 µM: TGI (UACC-257 melanoma) | TGI (COLO 205 colon)
3.04 µM: TGI (SF-268 CNS)
3.3 µM: TGI (PC-3 prostate)
3.11 µM: TGI (HT29 colon)
4.24 µM: TGI (A498 renal)
3.37 µM: TGI (TK-10 renal)
3.5 µM: TGI (BT-549 breast)
3.46 µM: TGI (K-562 leukemia) | TGI (MDA-MB-435)
3.66 µM: TGI (ACHN renal)
3.93 µM: TGI (T-47D breast) | TGI (OVCAR-5 ovarian)
3.35 µM: TGI (MCF7 breast)
3.72 µM: TGI (SW-620 colon) | TGI (NCI-H460 lung) | TGI (NCI-H522 lung)
3.86 µM: TGI (IGROV1 ovarian) | TGI (SK-OV-3 ovarian)
2.65 µM: TGI (SR leukemia)
3.45 µM: TGI (HCC-2998 colon)
4.03 µM: TGI (U251 CNS)
3.97 µM: TGI (HCT-116 colon)
4.37 µM: TGI (HS 578T breast)
5.15 µM: TGI (OVCAR-8 ovarian)
3.42 µM: TGI (SK-MEL-28 melanoma) | TGI (MDA-MB-231 breast)
3.58 µM: TGI (CAKI-1 renal)
13.6 µM: TGI (NCI-H23 lung)
7.2 µM: TGI (SNB-19 CNS)
4.9 µM: TGI (HOP-92 NSCLC)
3.2 µM: TGI (SK-MEL-5 melanoma)
3.06 µM: TGI (786-0 renal)
3.21 µM: TGI (DU-145 prostate) | TGI (UACC-62 melanoma)
4.29 µM: TGI (HCT-15 colon)
7.69 µM: TGI (SN12C renal)
4.11 µM: TGI (MALME-3M melanoma)
2.88 µM: TGI (SNB-75 CNS)
3.17 µM: TGI (SF-539 CNS)
3.43 µM: TGI (HOP-62 NSCLC)
3.54 µM: TGI (CCRF-CEM leukemia)
3.7 µM: TGI (LOX IMVI melanoma) | TGI (M14 melanoma)
4.46 µM: TGI (RPMI-8226 leukemia)

COc1ccc2c(=O)c3ccoc3[nH]c2c1
> 100 µM: TGI (LOX IMVI melanoma) | TGI (PC-3 prostate) | TGI (HT29 colon) | TGI (SF-295 CNS) | TGI (K-562 leukemia) | TGI (HCT-116 colon) | TGI (UACC-257 melanoma) | TGI (U251 CNS) | TGI (SK-MEL-2 melanoma) | TGI (IGROV1 ovarian) | TGI (A498 renal) | TGI (DU-145 prostate) | TGI (BT-549 breast) | TGI (786-0 renal) | TGI (EKVX NSCLC) | TGI (SNB-75 CNS) | TGI (HOP-92 NSCLC) | TGI (HCT-15 colon) | TGI (SK-MEL-28 melanoma) | TGI (KM12 colon) | TGI (OVCAR-4 ovarian) | TGI (HCC-2998 colon) | TGI (SK-MEL-5 melanoma) | TGI (SNB-19 CNS) | TGI (OVCAR-8 ovarian) | TGI (NCI-H23 lung) | TGI (MCF7 breast) | TGI (MOLT-4 leukemia) | TGI (T-47D breast) | TGI (CCRF-CEM leukemia) | TGI (MDA-MB-231 breast) | TGI (HL-60(TB) leukemia) | TGI (ACHN renal) | TGI (SR leukemia) | TGI (UO-31 renal) | TGI (NCI-H226 lung) | TGI (SF-539 CNS) | TGI (HS 578T breast) | TGI (COLO 205 colon) | TGI (RPMI-8226 leukemia) | TGI (UACC-62 melanoma) | TGI (HOP-62 NSCLC) | TGI (CAKI-1 renal) | TGI (TK-10 renal) | TGI (SF-268 CNS) | TGI (MDA-MB-435) | TGI (NCI/ADR-RES ovarian) | TGI (SW-620 colon) | TGI (NCI-H460 lung) | TGI (M14 melanoma) | TGI (SK-OV-3 ovarian) | TGI (RXF 393 renal)
